Measured values taken from patent US12110313B2, “Engineered bacterial ribosome compositions and methods” (ARIZONA BOARD OF REGENTS ON BEHALF OF ARIZONA STATE …, priority 2019, dated 2024).

What was measured:
[1] = test system: CD40 expression in RAW 264.7 mouse macrophage cells; assay: CD40 upregulation in RAW 264.7 cells by flow cytometry with PE-conjugated anti-mouse CD40 antibody; format: cell-based
Method: FIG. 6. Flow cytometry analysis of RAW 264.7 cells treated with murine IFNs and probed with PE-conjugated anti-mouse CD40 antibody. Upper left, 0.6 pg/mL glycosylated IFN; upper right, 6 pg/mL non-glycosylated IFN; lower left, 0.6 pg/mL non-glycosylated IFN; lower right, control lacking IFN.
These four modified INF-βs were tested in parallel with wild-type (fully glycosylated) mouse IFN-β for their activities. Our assay system uses RAW 264.7 mouse macrophage cells (ATCC TIB-71), which have been transformed using Abelson murine leukemia virus. […] CD40 upregulation was probed using a PE (phycoerythrin)-conjugated anti-mouse CD40 antibody. As shown (FIG. 6), this assay system has been used successfully to compare fully glycosylated and non-glycosylated murine INF-βs by flow cytometry.

[2] = test system: wild-type ribosomes; assay: Incorporation of glycosylated amino acids into proteins from activated suppressor tRNAs by wild-type ribosomes; format: biochemical, E. coli; settings: nonsense codon suppression with activated suppressor tRNA
Description: FIG. 3 depicts glycosylated amino acids incorporated into proteins by wild-type E. coli ribosomes.
Many glycosylated amino acids can be incorporated into proteins in quite good yield from activated suppressor tRNAs by nonsense codon suppression employing wild-type ribosomes. However, in numerous experiments, when any of these was O- or N-acetylated at one or more positions, the result was virtually complete loss of the ability of the activated tRNAs to suppress nonsense codons. Accordingly, we have used O-GlcNAc-puromycin (FIG. 4) to select modified ribosomes capable of incorporating N-acetylglycosyl amino acids.
Post-translational protein glycosylation is both ubiquitous in nature and quite important. […] However, for whatever reason(s), neither O- nor N-acetylated glycosyl amino acids could be incorporated in good yield with wild-type ribosomes. We wish to select modified ribosomes capable of incorporating O- or N-acetylated glycosyl amino acids efficiently.

[3] = test system: antiviral activity; settings: murine INF-β, modification at position 29; cited from earlier work

## glycosylated IFN-β: fully glycosylated murine interferon-β
[1]
  response in CD40 upregulation assay: dose-dependent responses
[1]; CD40 upregulation
  potency relative to non-glycosylated IFN-β: about 10 fold

## N[C@@H](Cc1ccc(OC2O[C@H](CO)[C@@H](O[C@@H]3O[C@H](CO)[C@H](O)[C@H](O)[C@H]3O)[C@H](O)[C@H]2O)cc1)C(=O)O (stereo partly drawn) [O-lactosyltyrosine]
[2]
  incorporation into proteins by wild-type ribosomes: incorporated into proteins quite well

B1: Asp29: murine INF-β with replacement of Asn29 with Asp29 (protein, UniProt P01575 22-182, looked up, variant N29D)
Interferon beta: INYKQLQLQERTNIRKCQELLEQLNGKIDLTYRADFKIPMEMTEKMQKSYTAFAIQEMLQNVFLVFRNNFSSTGWNETIVVRLLDELHQQTVFLKTVLEEKQEERLTWEMSSTALHLKSYYWRVQRYLKLMKYNSYAWMVVRAEIFRNFLIIRRLTRNFQN
[3]
  reduction of antiviral activity from wild-type: two-fold

B2: Ala29: murine INF-β with replacement of Asn29 with Ala29 (protein, UniProt P01575 22-182, looked up, variant N29A)
Interferon beta: INYKQLQLQERTNIRKCQELLEQLNGKIALTYRADFKIPMEMTEKMQKSYTAFAIQEMLQNVFLVFRNNFSSTGWNETIVVRLLDELHQQTVFLKTVLEEKQEERLTWEMSSTALHLKSYYWRVQRYLKLMKYNSYAWMVVRAEIFRNFLIIRRLTRNFQN
[3]
  reduction of antiviral activity from wild-type: 10 fold

B3: non-glycosylated IFN-β: non-glycosylated murine interferon-β (protein, UniProt P01575 22-182, looked up)
Interferon beta: INYKQLQLQERTNIRKCQELLEQLNGKINLTYRADFKIPMEMTEKMQKSYTAFAIQEMLQNVFLVFRNNFSSTGWNETIVVRLLDELHQQTVFLKTVLEEKQEERLTWEMSSTALHLKSYYWRVQRYLKLMKYNSYAWMVVRAEIFRNFLIIRRLTRNFQN
modifications: non-glycosylated
[1]
  response in CD40 upregulation assay: dose-dependent responses
